Data reported in ChEMBL document CHEMBL1147723, “Novel chromene-derived selective estrogen receptor modulators useful for alleviating hot flushes and vaginal dryness” (J Med Chem, 2006).
Calls of active or inactive are those of the source. No cut-off for these calls is given here.

Tests used:
[1] = biological target: T1, Estrogen receptor (Homo sapiens, UniProt Q92731+P03372); details: ishikawa
Description: Inhibition of estrogen receptor in Ishikawa cells

[2] = biological target: T1, Estrogen receptor; test: Agonist activity at estrogen receptor in MCF7 cells; format: functional, cell-based
[3] = biological target: Estrogen receptor beta (Homo sapiens, UniProt Q92731)
Sequence of Estrogen receptor beta (Q92731 whole entry): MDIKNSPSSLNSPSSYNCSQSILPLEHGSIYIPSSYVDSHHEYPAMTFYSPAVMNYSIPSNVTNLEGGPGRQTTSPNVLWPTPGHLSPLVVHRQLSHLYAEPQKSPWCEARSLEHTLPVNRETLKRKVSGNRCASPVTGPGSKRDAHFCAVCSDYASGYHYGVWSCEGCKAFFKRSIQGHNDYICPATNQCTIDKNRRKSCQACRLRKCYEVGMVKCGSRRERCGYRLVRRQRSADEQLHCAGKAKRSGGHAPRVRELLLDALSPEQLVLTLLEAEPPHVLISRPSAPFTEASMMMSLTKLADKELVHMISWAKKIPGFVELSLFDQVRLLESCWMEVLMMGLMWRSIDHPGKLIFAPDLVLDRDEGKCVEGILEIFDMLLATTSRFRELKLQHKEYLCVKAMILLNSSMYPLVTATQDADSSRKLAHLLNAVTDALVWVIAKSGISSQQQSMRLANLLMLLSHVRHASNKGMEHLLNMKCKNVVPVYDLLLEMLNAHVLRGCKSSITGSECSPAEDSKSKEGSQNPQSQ
Description: Binding affinity to ERbeta

[4] = system: Rattus norvegicus; test: (§1) Ability to block estrone-induced increase in uterine wet weight in immature rat at […], po after 3 days by uterotropic assay; format: functional; details: 72 h
[5] = organism: Rattus norvegicus; test: Ability to suppress increase of tail skin temperature in morphine-dependent rat; format: functional, organism-based
[6] = Bioavailability in rat plasma; format: ADME, organism-based
[7] = organism: Rattus norvegicus; test: Inhibition of bone loss in ovariectomized rat; format: functional, organism-based
[8] = biological target: T2, Estrogen receptor (Homo sapiens, UniProt P03372)
T2 sequence (P03372 whole entry): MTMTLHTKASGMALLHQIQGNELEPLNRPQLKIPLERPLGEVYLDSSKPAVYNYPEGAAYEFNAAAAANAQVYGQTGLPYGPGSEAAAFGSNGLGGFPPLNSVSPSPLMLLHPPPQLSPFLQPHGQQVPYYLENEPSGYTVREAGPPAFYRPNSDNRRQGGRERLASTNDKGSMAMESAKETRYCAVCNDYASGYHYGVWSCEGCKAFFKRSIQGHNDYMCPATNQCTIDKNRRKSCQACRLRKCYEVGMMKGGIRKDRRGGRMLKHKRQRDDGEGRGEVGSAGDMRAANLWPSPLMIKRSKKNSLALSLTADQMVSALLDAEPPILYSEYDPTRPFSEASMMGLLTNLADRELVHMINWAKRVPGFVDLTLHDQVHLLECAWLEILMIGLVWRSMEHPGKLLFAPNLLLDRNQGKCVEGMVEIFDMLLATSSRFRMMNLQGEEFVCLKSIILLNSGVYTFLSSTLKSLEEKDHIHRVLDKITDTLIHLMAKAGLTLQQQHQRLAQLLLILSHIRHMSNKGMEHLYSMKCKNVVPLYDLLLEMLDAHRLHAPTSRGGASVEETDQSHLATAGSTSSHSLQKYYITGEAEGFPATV
Description: Binding affinity to ERalpha

[9] = biological target: T1, Estrogen receptor; details: mcf7
Description: Inhibition of estrogen receptor in MCF7 cells

[10] = system: Rattus norvegicus; test: as §1; format: functional; details: 72 h; remark: listed apart in the source
[11] = system: Rattus norvegicus; test: Ability to block estrone-induced increase in uterine wet weight in immature rat at 0.42 mg/kg/day, po after 3 days by uterotropic assay; format: functional; details: 72 h
[12] = organism: Rattus norvegicus; test: Reduction in serum cholesterol level in ovariectomized rat; format: functional; parameters: scale not given: the % may be the effect or the level left
[13] = system: Rattus norvegicus; test: Ability to suppress increase of tail skin temperature in morphine-dependent rat at […].day, po; format: functional, organism-based; parameters: dose 1.4 mg/kg
[14] = system: Rattus norvegicus; test: (§2) Increase in vaginal fluid in ovariectomized rat at […], po; format: functional, organism-based; parameters: dose 0.14 mg/kg
[15] = system: Rattus norvegicus; test: as §2; format: functional, organism-based; parameters: dose 1.4 mg/kg

Structure (SMILES) | IC50 [1] | EC50 [2] | IC50 [3] | inhibition in vivo at […] [4] | Activity [5] | bioavailability [6] | Activity [7] | IC50 [8] | IC50 [9] | inhibition in vivo at […] [10] | inhibition in vivo at 0.42 mg/kg/day [11] | Activity [12] | Activity [13] | Activity [14] | Activity [15]
CN(C)c1ccc(C2Oc3cc(O)ccc3C3=C2c2ccc(O)cc2OC3)cc1 (stereo not drawn) | 3800 nM | 71 nM |  |  |  |  |  |  |  |  |  |  |  |  | 
CC(C)(C)C(=O)Oc1ccc2c(c1)O[C@@H](c1ccc(OCCN3CCCCC3)cc1)C1=C2COc2cc(OC(=O)C(C)(C)C)ccc21 | 99 nM |  | > 10000 nM | 100% | inactive | 9% | Dose-dependent effect | > 1000 nM | 670 nM | 55% | 88% | 33% |  |  | 
Oc1ccc2c(c1)O[C@@H](c1ccc(OCCN3CCCCC3)cc1)C1=C2COc2cc(O)ccc21 | 17.1 nM |  | 1.3 nM |  |  |  |  | 0.61 nM | 416 nM |  |  |  |  |  | 
CN(C)CCOc1ccc(C2Oc3cc(O)ccc3C3=C2c2ccc(O)cc2OC3)cc1 (stereo not drawn) | 180 nM |  |  |  |  |  |  |  | 220 nM |  |  |  |  |  | 
Oc1ccc2c(c1)OC(c1ccc(OCCN3CCCCC3)cc1)C1=C2COc2cc(O)ccc21 (stereo not drawn) | 12 nM |  |  |  |  |  |  |  | 110 nM |  |  |  |  |  | 
CC(C)(C)C(=O)Oc1ccc2c(c1)O[C@H](c1ccc(OCCN3CCCCC3)cc1)C1=C2COc2cc(OC(=O)C(C)(C)C)ccc21 | 175 nM |  | > 10000 nM | 75% |  | 11% | Dose-dependent effect | > 10000 nM | 510 nM | 27% | 55% | 33% | Active | Active | Active
Oc1ccc2c(c1)O[C@H](c1ccc(OCCN3CCCCC3)cc1)C1=C2COc2cc(O)ccc21 | 43.3 nM |  | 20.3 nM |  |  |  |  | 51 nM | 599 nM |  |  |  |  |  | 
